Test results from patent US20210275575A1, “COMPOSITION FOR IMPROVING RENAL FUNCTION IN RENAL DISEASES CONTAINING MOLECULAR HYDROGEN” (MiZ Company Limited, priority 2020, published 2021).
Like-named read-outs stand apart in the source and are kept apart here.

What was measured:
[1] = test system: human patient with chronic nephritis
[2] = test system: patient with renal failure
Procedure: A person developed renal failure from diabetes and has been on dialysis since 2006.
Therefore, they started hydrogen gas inhalation in September 2019. Specifically, they did inhalations 3 to 4 hours per day using a hydrogen generator (model used: Jobs-a manufactured by MiZ Company Limited (hydrogen concentration: about 5%, other gas: air), amount of hydrogen gas generated: 200 ml/min).

[3] = approximately three years after first visit (about 2 years of inhalation)
[4] = approximately two and a half years after first visit
[5] = approximately two and a half years after first visit, 6 to 7.5% hydrogen inhaled 2 to 3 hours per day

SMILES: [HH] [molecular hydrogen]
- urinary protein (protein amount per day) ([1]; about 2 years of inhalation, when the excreted urine volume is 1.5 L per day, normal levels: less than 0.2 g/day): about 0.1 g/day
- urinary protein determination ([1]; approximately three years after first visit (about 2 years after the start of molecular hydrogen inhalation)): 6.6 mg/dL
- HbA1c [1, 3]: 6.5%
- blood sugar level [1, 3]: 139 mg/dL
- glyco-albumin [1, 3]: 17.3%
- need for dialysis (doctor's judgement) [1, 3]: dialysis was not required
- renal function and diabetic symptoms (assessment in words) [1, 3]: improvement in renal function and diabetic symptoms was observed
- serum creatinine [1, 3]: 0.86 mg/dL
- urea nitrogen (BUN) [1, 3]: 21.5 mg/dL
- urinary creatinine [1, 3]: 27.3 mg/dL
- eGFR ([1]; approximately three years after first visit (about 2 years of inhalation), formula of b46 (ml/min/1.73 m^2)): 45.9
- urinary protein/urinary creatinine ratio ([1]; approximately three years after first visit (about 2 years of inhalation), normal levels: less than 0.3 g/gCr): 0.24 g/gCr
- HbA1c [1, 4]: 8.0%
- blood sugar level [1, 4]: 181 mg/dL
- glyco-albumin [1, 4]: 24.7%
- renal function (assessment in words) [1, 4]: tendency for improvement
- serum creatinine [1, 4]: 0.91 mg/dL
- symptoms of diabetes (assessment in words) [1, 4]: seem to be getting worse
- urea nitrogen (BUN) [1, 4]: 22.1 mg/dL
- urinary creatinine [1, 5]: 24.1 mg/dL
- urinary protein determination [1, 5]: 25.3 mg/dL
- urinary protein/urinary creatinine ratio [1, 5]: 1.05 g/gCr
- eGFR ([1]; approximately two and a half years after first visit, eGFR estimated by the formula of b46 (ml/min/1.73 m^2)): 52.0
- urinary protein ([1]; approximately two and a half years after first visit, inhalation of 6 to 7.5% hydrogen about 2 to 3 hours per day, started about one year after first visit, concomitant medicaments): ± (± is A2)
- feelings of heaviness after dialysis ([2]; 1 month after starting hydrogen inhalation): their body felt lighter
- edema after dialysis ([2]; 1 month after starting hydrogen inhalation, about 5% hydrogen in air, 3 to 4 hours per day): the edema decreased
- walking ability ([2]; 10 days after starting hydrogen inhalation, about 5% hydrogen in air, 3 to 4 hours per day): became able to walk
